Results on 4 compounds are retold here after US7618988B2, “Use of substituted aminomethyl chromans” (Merck Patentgesellschaft, priority 2001, dated 2009).

In one assay the test system is cataleptic rat. The assay is described as follows: reversal of catalepsy in rats. To be noted: subcutaneous; for ED50: Rattus norvegicus, sc, read-out: ED50 (calculated dose to reverse catalepsy by 50%). Format: in vivo. The protocol:
R represents hydrogen or a hydroxyl protecting group, and their optical isomers and pharmaceutically acceptable salts, in particular 2-({[5-(4-fluorophenyl)-pyridin-3ylmethyl]-amino}-methyl)-chroman-4-ol or an optical isomer or a physiologically acceptable salt or solvate thereof, excert an extraordinary potency in reversing catalepsy. Extrapyramidal motor side effects in e.g. rodents are measured by the ability of a drug to induce catalepsy. Catalepsy is defined as a state where an animal continues to remain in an unnormal (nonphysiological ‘uncomfortable’) posture for a long time (e.g.: M. E. Stanley and S. D. Glick, Neuropharmacology, 1996; 15: 393-394; C. J. E. Niemegeers and P. Janssen, Life Sci., 1979, […]). For example, if a hindpaw of a rat is placed on an elevated level, e.g. a platform elevated 3 cm above ground level, a normal rat immediately withdraws the hindpaw from the platform to the ground level. A cataleptic rat remains in this unnatural posture even for minutes.

Another assay relates to parkinsonian monkeys. To be noted: literature; cited from earlier work.
A further assay deals with dopamine D4 receptors (Homo sapiens, UniProt P21917). Conditions: literature statement; cited from earlier work.
The test system of another assay is Parkinson patients. Conditions: literature; cited from earlier work.
The next assay has as its system MSA patients. The assay is described as follows: study in MSA patients (UPDRS). To be noted: add on, 2,5 to 20 mg b.i.d. Format: in vivo, human. How it is done: The study design is similar to that described above for Parkinson's disease. (2R,4R)-2-({[5-(4-fluorophenyl)-pyridin-3ylmethyl]-amino}-methyl)-chroman-4-ol monohydrochloride hemihydrate or placebo is titrated as “add on” to the conventional treatment (dose range 2,5 to 20 mg b.i.d.). After a double-blind dose-finding phase of 3 weeks during which the individual dose is identified for each patient on the basis of tolerability and efficacy, the dose is maintained unchanged for 3 additional weeks. Before the start of titration and at the end of the treatment period a complete UPDRS assessment is performed in each patient (primary outcome measure).

The subject of assay [1] is patients with idiopathic Parkinson's disease. Briefly: double-blind study, idiopathic Parkinson's disease. The format is in vivo, human. To be noted: add on, 2.5 to 10 mg b.i.d. The source says:
A typical study to investigate the efficacy of the compounds according to the invention in the treatment of idiopathic Parkinson's disease is described in the following. 180 patients of either sex with idiopathic Parkinson's disease participate in a double-blind study. The main inclusion criteria are Hoehn & Yahr stage ≧2.0 (Hoehn H. M. et al, Neurology 1967; 17: 427442), aged 50-80 years, symptom duration of at least 5 years. (2R,4R)-2-({[5-(4-fluorophenyl)-pyridin-3ylmethyl]-amino}-methyl)-chroman-4-ol monohydrochloride hemihydrate or placebo is administered as “add on” to the conventional Parkinson treatment, which is maintained unchanged during the whole study. The dose of blinded medication is titrated over a period of 4 weeks in a range from 2.5 to 10 mg b.i.d. Then the medication is kept constant for 1 week. Before the start of titration and at the end of the treatment period the patients fill a diary card in 30 min. intervals for 48 hours. The diary card differentiates 5 different states: (1) “on” without dyskinesia, (2) “on” with troublesome dyskinesia, (3) “on” with non-troublesome dyskinesia, (4) “off” time, and (5) time asleep (Hauser R A et al., Clin. Neuropharmacol., 2000, 23, 75-81). […]

For assay [2], the system named is patients with advanced idiopathic Parkinson's disease. The assay is described as follows: double-blind study, advanced idiopathic Parkinson's disease with peak-dose dyskinesia. To be noted: add on, 2.5 to 10 mg b.i.d., diary card. Format: in vivo, human. The source says:
A typical study to investigate the efficacy of the compounds according to the invention for adverse effects in Parkinson's disease is described in the following. 40 patients of either sex with advanced idiopathic Parkinson's disease complicated by “peak-dose” dyskinesia participate in a double-blind study. The main inclusion criteria are Hoehn & Yahr stage ≧2.5 (lit.: Hoehn H. M. et al, Neurology 1967; 17: 427-442), aged 40-75 years, symptom duration of at least 5 years, and a l-dopa treatment duration of at least 3 years. (2R,4R)-2-({[5-(4-fluorophenyl)-pyridin-3ylmethyl]-amino}-methyl)-chroman-4-ol monohydrochloride hemihydrate or placebo is administered as “add on” to the conventional Parkinson treatment, which is maintained unchanged during the whole study. The dose of blinded medication is titrated over a period of 3 weeks in a range from 2.5 to 10 mg b.i.d. Then the medication is kept constant for 3 weeks. Before the start of titration and at the end of the treatment period the patients fill a diary card in 30 min. inervals for 48 hours. The diary card differentiates 5 different states: (1) “on” without dyskinesia, (2) “on” with troublesome dyskinesia, (3) “on” with non-troublesome dyskinesia, (4) “off” time, and (5) time asleep (Hauser R A et al., Clin. Neuropharmacol., 2000, 23, 75-81). The primary outcome variable of the protocol is the change in “on” time with troublesome dyskinesia. […] The other parameters are not changed.

The test system of assay [3] is schizophrenic inpatients on long-term antipsychotic treatment. Briefly: study in tardive dyskinesia (AIMS). Format: in vivo, human. Conditions: add on, 2,5 to 20 mg b.i.d., vs placebo period. The text has this: Tardive dyskinesia is a common adverse effect of long-term treatment with neuroleptics. A typical study to investigate the efficacy of the compounds according to the invention in tardive dyskinesia is described in the following. 32 schizophrenic (DSM-III-R) inpatients aged 25-60 years on long-term stable antipsychotic treatment (duration of at least 5 years) entered the study. (2R,4R)-2-({[5-(4-fluorophenyl)-pyridin-3ylmethyl]-amino}-methyl)-chroman-4-ol monohydrochloride hemihydrate or placebo is administered as “add on” to the antipsychotic treatment, which is kept constant during the whole study. The dose of blinded medication is titrated over a period of 3 weeks in a range from 2,5 to 20 mg b.i.d. Then the medication is maintained under double-blind conditions for 2 weeks. After a 2-week wash-out period, the test drugs are crossed over. Assessments of tardive dyskinesia by means of the Abnormal Involuntary Movement Scale (AIMS, see above) and of Parkinsonian extrapyramidal side effects (UPDRS, see above) are made pretreatment and posttreatment.

Chain of dopamine D4 receptors (P21917 whole entry): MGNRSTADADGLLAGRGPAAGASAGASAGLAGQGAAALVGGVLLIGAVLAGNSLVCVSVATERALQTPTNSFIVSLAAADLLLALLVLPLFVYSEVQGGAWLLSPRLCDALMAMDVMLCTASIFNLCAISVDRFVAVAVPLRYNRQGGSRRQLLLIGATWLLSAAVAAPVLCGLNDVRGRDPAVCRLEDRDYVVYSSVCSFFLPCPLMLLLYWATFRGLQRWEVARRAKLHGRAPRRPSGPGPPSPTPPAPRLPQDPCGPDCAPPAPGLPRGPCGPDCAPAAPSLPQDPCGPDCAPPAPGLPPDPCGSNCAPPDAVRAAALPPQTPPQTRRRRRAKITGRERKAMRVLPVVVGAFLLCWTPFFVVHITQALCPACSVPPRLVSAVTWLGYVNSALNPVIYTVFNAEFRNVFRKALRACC

Consider `Cc1ccc2c(c1)C(N1CCN(C)CC1)=Nc1cccnc1N2` [8-methyl-6-(4-methyl-1-piperazineyl)-11 H-pyrido[2,3-b][1,4,]benzodiazepine], for which the “ED50 (calculated dose to reverse catalepsy by 50%)” value in the assay on cataleptic rat was 3 mg/kg. In addition, the “effects in parkinsonian monkeys” value with parkinsonian monkeys is “beneficial effects”. The “selectivity for the dopamine D4 receptor compared to clozapine” value on dopamine D4 receptors is recorded as “much increased selectivity”.
`O=C1CC2(CCCC2)CC(=O)N1CCCCN1CCN(c2ncccn2)CC1` [buspirone]: the ED50 with cataleptic rat is 6 mg/kg. Besides, the anti-dyskinetic effect result in the assay on Parkinson patients is “moderate anti-dyskinetic properties”.
With `O=C1c2ccccc2S(=O)(=O)N1CCCCN1CCN(c2ncccn2)CC1` [ipsapirone], the ED50 with cataleptic rat was 10 mg/kg.
Turning to “(2R,4R)-2-({[5-(4-fluorophenyl)-pyridin-3ylmethyl]-amino}-methyl)-chroman-4-ol monohydrochloride hemihydrate”, the “UPDRS, Parkinson symptoms” value in the assay with MSA patients is reported as “significant clinical improvement of Parkinson symptoms”. In assay [1], the clinical improvement result is given as “significant clinical improvement” and the “efficacy to treat tremor” value is given as “efficacy to treat tremor is shown”. In assay [2], the other diary parameters result is recorded as “not changed”, the ““on” time with troublesome dyskinesia” value is “significant reduction” and the ““on” time without dyskinesia” value is reported as “significantly increase”. The AIMS scores result in assay [3] is listed as “significantly lower than during placebo period”.
